Reference: patent US20260055065A1, “PYRIDAZINONE COMPOUNDS WHICH MODULATE MUTANT PROTEINS FOR TREATING RESPIRATORY DISEASES” (The Hospital for Sick Children, priority 2022, published 2026)
“Also recorded” adds a separate entry of the source.

Tests used:
Wt-CFTR = Wt-CFTR (Homo sapiens, UniProt P13569); experiment: Calu-3 CSE experiments, FLiPR assay of CFTR channel activity; format: cell-based; set-up: this airway epithelial cell line endogenously expresses this channel; endogenous in cells; host or cells: Calu-3
Wt-CFTR, sequence (P13569 whole entry): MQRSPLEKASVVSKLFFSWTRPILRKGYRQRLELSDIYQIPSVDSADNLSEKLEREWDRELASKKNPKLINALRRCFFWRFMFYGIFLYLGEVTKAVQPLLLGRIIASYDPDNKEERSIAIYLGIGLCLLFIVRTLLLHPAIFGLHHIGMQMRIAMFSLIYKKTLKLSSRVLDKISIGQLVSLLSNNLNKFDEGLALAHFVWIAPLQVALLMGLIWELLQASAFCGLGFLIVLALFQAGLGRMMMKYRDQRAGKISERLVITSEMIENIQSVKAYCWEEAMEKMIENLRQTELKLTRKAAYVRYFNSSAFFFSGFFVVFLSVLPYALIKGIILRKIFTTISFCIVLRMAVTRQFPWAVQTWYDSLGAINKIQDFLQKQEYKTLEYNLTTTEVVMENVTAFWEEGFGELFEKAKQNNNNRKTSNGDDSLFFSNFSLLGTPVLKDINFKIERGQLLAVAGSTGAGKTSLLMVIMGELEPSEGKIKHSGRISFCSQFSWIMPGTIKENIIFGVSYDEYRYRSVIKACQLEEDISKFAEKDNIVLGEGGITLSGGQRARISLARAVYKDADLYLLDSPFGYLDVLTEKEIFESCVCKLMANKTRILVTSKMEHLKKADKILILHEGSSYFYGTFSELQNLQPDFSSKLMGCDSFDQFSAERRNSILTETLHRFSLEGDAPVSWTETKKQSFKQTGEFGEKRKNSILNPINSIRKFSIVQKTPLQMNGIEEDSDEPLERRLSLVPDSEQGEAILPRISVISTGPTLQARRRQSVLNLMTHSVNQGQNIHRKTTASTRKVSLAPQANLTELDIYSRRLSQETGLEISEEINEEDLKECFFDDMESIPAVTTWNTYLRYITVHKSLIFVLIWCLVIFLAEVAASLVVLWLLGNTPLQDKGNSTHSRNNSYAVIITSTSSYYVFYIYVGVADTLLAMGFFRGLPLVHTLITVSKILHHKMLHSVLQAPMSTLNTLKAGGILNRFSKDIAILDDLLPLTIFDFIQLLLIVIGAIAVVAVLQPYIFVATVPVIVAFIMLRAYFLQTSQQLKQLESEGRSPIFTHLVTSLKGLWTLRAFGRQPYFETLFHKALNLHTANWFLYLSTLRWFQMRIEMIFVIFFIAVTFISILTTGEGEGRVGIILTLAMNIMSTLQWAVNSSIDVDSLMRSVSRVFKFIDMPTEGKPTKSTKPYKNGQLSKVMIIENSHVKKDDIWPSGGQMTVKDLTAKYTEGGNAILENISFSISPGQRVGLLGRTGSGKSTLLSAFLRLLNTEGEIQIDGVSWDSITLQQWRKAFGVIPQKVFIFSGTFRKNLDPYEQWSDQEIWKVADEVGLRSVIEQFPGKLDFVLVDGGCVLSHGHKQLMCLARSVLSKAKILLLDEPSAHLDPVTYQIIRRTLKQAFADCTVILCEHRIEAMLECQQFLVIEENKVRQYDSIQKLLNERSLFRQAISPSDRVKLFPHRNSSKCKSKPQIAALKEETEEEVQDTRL
Protocol: Addition of CFTR-inhibitor indicated with grey arrow. Superimposed, we show the effect of acute co-application of VX-770 (open squares) or SK-POT (open triangles) with forskolin. […] Only SK-POT rescued CFTR channel function in the presence of cigarette smoke extract.
Calu-3 cells were cultured using EMEM (Wisent) supplemented with FBS at 20% (v/v) and 1× Penicillin/Streptomycin (Wisent). Calu-3 cells were seeded on clear-bottom, black-walled 96 well plates (Costar, Corning) at a density of 10,000 cells/well and cultured for 2 days post-confluence. Cells then received the chronic treatment of toxin and potentiator. The toxin treatment consisted of either cigarette smoke extract (CSE) prepared in 100% DMSO (University of Alabama at Birmingham), dissolved at a concentration of 2% (v/v) in Calu-3 medium, with an equivalent concentration of DMSO alone serving as the toxin control. The chronic drug treatment was co-applied with the toxin, which included either VX-770 or Compound 11 (both prepared in 100% DMSO) dissolved in Calu-3 medium at a final concentration of 1 μm. VX-770 (Vertex) and Compound 11 solutions were prepared from 1 mM stocks. The control for the drug treatment was the vehicle, DMSO at an equivalent volume. Combining the two toxin treatments and three drug treatments, a total of six treatments were applied chronically to 4 wells per condition, for a total of 24 wells receiving chronic treatment.
Cells were cultured for an additional 24 hours after chronic treatment application, after which cells were incubated with FLiPR assay buffer. The FLiPR assay buffer consisted of blue FLiPR dye (Molecular Devices) dissolved at a concentration of 0.5 mg/mL in chloride-free buffer (150 mM NMDG, 150 mM gluconolactone, 3 mM potassium gluconate, 300 mOsm and pH 7.38). Buffer was incubated with cells at 37 degrees and 5% CO2 for 35 minutes. CFTR function was assessed by measuring changes in fluorescence activity after acute CFTR channel activation by addition of cAMP agonist forskolin dissolved in chloride-free buffer to a final concentration 1 μm, using the SpectraMax i3x multimodal plate reader. Fluorescence readings (excitation 530 nm; emission 560 nm) for each well were taken at 30-second intervals for 5 minutes (baseline) or 10 minutes (activation). CFTR activity was then terminated by addition of CFTR-inhibitor 172 dissolved in chloride-free buffer to a concentration of 10 μm, to further verify the specificity of the response to CFTR activity. Fluorescence changes were recorded at 30-second intervals for another 10 minutes. In analysis, all fluorescence values were normalized per well to the final reading prior to the addition of forskolin and expressed as a percentage of this reading.

[1] = system: primary differentiated human bronchial epithelial cultures; experiment: Bead tracking assay of mucociliary movement, primary bronchial epithelial cultures exposed to cigarette smoke extract; format: cell-based; conditions: for mucostasis / bead velocity in CSE-treated cultures: CSE 2%, compound 1 μM for 24 hours, forskolin 10 μM
Protocol: Compound 11 was tested in an in-vitro model of COPD. In this model, primary differentiated human bronchial epithelial cultures were exposed to cigarette smoke extract (4,5). Exposure to cigarette smoke extract (CSE) led to mucostasis and slowed mucociliary movement (FIG. 1(A) and (B)). […] Changes in mucociliary movement were determined as in our previous publication (7), i.e., by tracking the speed of fluorescent beads added to the surface of the airway cultures. The relative rescue effect of Compound 11 compared favourably relative to the competitor, the FDA approved CFTR potentiator marketed as Ivacaftor (VX-770).
Mature bronchial epithelial cultures, seeded on 24-well transwell inserts, derived from non-smoker donors of variable ages were received from the University of Iowa and cultured at air-liquid interface (ALI) using UltraG medium. A total of 6 inserts per donor were cultured, and all inserts from a single donor were selected to receive chronic drug and toxin treatment. Ahead of chronic treatment, cultures were subject to mucomist to reduce the volume and viscosity of the mucous layer ahead of imaging. Cultures were first washed twice with 200 uL HBSS (Wisent) applied apically to the transwell, each wash for 10 minutes at 37 degrees and 5% CO2. Cells were then incubated with 10 μM N-acetyl-cysteine (source?) dissolved in HBSS (Wisent) for 30 minutes, followed by a final HBSS wash as described previously. The toxin treatment consisted of either cigarette smoke extract (CSE) prepared in 100% DMSO (University of Alabama at Birmingham), dissolved at a concentration of 2% (v/v) in UltraG medium, with an equivalent concentration of DMSO alone serving as a control. The chronic drug treatment was co-applied with the toxin treatment, which included either VX-770 (Vertex) or SK-POT, aka Compound 11 (both prepared in 100% DMSO) dissolved in UltraG medium at a final concentration of 1 μm. There were a total of 6 chronic treatments, with each of the 6 inserts per donor receiving a different chronic treatment. Bronchial epithelia were incubated with the chronic treatment, applied apically, for 24 hours at 37 degrees C. and 5% CO2. After 24 hours, green fluorescent microspheres (brand?) dissolved in HBSS at a concentration of 0.05% (v/v) were applied apically; cultures were incubated with the microspheres for 45 minutes. The toxin and potentiator treatments were carried forth into the microsphere solution.
Inserts were then imaged at room temperature by epifluorescence microscopy (Zeiss or Olympus). The basic replicate of the assay consists of a 5-second video captured in the green channel and 40-60 frames per second; Z-position was adjusted ahead of each video to ensure beads in the airway surface liquid stratum immediately above the cilia were being captured. 5 videos were captured per insert/conditions, representing the centre and 4 corners of the insert. 2 sets of 5 videos were captured per insert/condition: one at baseline, and one 20 minutes following CFTR stimulation by forskolin at a concentration of 10 μM. Inserts were incubated at room temperature after forskolin addition.
Videos were captured using Volocity software and exported as one TIF file per frame. Frames were then re-compiled into complete videos using Arivis 4D software. Using an algorithm as previously described in Wu et al. 2017, microspheres were highlighted by adjusting two parameters: fluorescence intensity and diameter. […]

CC(C)(C)c1ccc(-n2nc(-c3ccc(F)cc3)c(N3CCCCC3)c(N)c2=O)cc1O [Compound 11, 4-amino-2-(4-(tert-butyl)-3-hydroxyphenyl)-6-(4-fluorophenyl)-5-(piperidin-1-yl)pyridazin-3(2H)-one]
forskolin-activated CFTR channel activity after CSE exposure (Wt-CFTR; Calu-3, CSE 2%, compounds 1 uM): significant increase in forskolin-activated CFTR channel activity | EC90 (Wt-CFTR; Calu-3, CFTR channel potentiation, read-out: approximate EC90): ~1000 nM | mucostasis / bead velocity in CSE-treated cultures [1]: prevented the mucostasis induced by cigarette smoke extract; also recorded: rescued to control values | mucostasis / bead velocity in CSE-treated cultures ([1]; listed as SK-POT): significant increase in bead velocity | bead velocity under control conditions ([1]; no CSE, compound added with vehicle for 24 hours): Neither VX-770 nor Compound 11 had any impact on bead velocity
